The experiment relates to Staphylococcus epidermidis (KTTC12228). In words: Paper disk diffusion antibacterial activity. Format: cell-based. The settings on record: paper disk 8 mm, mean ± SD (n = 3). The text has this:
In Experimental Example according to the present invention, Propionibacterium acnes (KCTC3314), which is an acne-causing pathogen, Candida albicans (ATCC 10231), which is a yeast that causes inflammatory or bacterial skin diseases, and Staphylococcus epidermidis (KTTC12228), which is gram-positive skin flora, were used. Propionibacterium acnes (KCTC3314) was inoculated into reinforced clostridial (RC) medium, sealed using a […] system in an anaerobic culture tank, and then anaerobically cultured at 37° C. for two days. As an aerobic strain of Candida albicans (ATCC 10231), Sabaurd Dextrose Agar (Difco. USA) was used, inoculated with the bacteria, and cultured in an incubator at 25° C. for 24 hours. As an aerobic strain, Staphylococcus epidermidis (KTTC12228) was inoculated into Mueller-Hinton medium and cultured at 37° C. for 24 hours before use. With respect to the ingredients according to Preparation Example and Comparative Preparation Example, an antibacterial activity against Staphylococcus epidermidis (KTC12228) was measured by using a paper disk diffusion method. Specifically, the evaluation of antibacterial activity against Staphylococcus epidermidis (KTTC12228), which is a secondary acne-causing pathogen, was performed by carrying out a cultivation with Muller-Hinton medium at 37° C. for 24 hours, and evenly spreading a bacterial suspension adjusted at a constant concentration (absorbance of 0.5 at an optical density of 620 nm) on an RC agar plate using a sterile cotton swab. After that, the plate was dried and a paper disk (Φ 8 mm, […]. USA) was placed on the surface of the plate inoculated with the strain, after which samples according to Preparation Example 2 and Comparative Preparation Examples 1 to 4, the positive control tetracycline and a mixed sample of Preparation Examples 1 and 2 (6:4) were absorbed thereon for each concentration. The sample-treated plate was cultured in an anaerobic culture tank for three days using the […] system, after which the antibacterial activity was measured by the size of the inhibition zone around the disk, and the results thereof are shown in table 2 below, respectively.

What is called zone of inhibition is the extent of the growth-free halo in a diffusion test. On to `CN(C)[C@@H]1C(O)=C(C(N)=O)C(=O)[C@@]2(O)C(O)=C3C(=O)c4c(O)cccc4[C@@](C)(O)[C@H]3C[C@@H]12` [Tetracycline, tetracycline], for which, where the note is “Staphylococcus epidermidis, concentration 1 mg, read-out: Zone of inhibition (diameter in mm)”, the zone of inhibition at 1000 µg/disc was roughly 12 mm. For the same compound, the zone of inhibition at 5000 µg/disc (Staphylococcus epidermidis, concentration 5 mg, read-out: Zone of inhibition (diameter in mm)) is roughly 14 mm. The “Zone of inhibition (diameter in mm)” value (concentration 1 mg) came to 12.82 ± 0.43 mm and the “Zone of inhibition (diameter in mm)” value (concentration 5 mg) is listed as 14.92 ± 0.23 mm.

The record behind these values is patent US20220047494A1, “ANTIBACTERIAL, DEODORIZATION, EASING OF ACNE AND ATOPY OR SKIN CALMING-FUNCTIONAL COMPOSITION FOR Y-ZONE CLEANLINESS CONTAINING QUERCUS ACUTISSIMA SAP AND ZINC RICINOLEATE” (MEDICLASSIC.CO.LTD, priority 2020, published 2022).
